# “Also recorded” adds a separate entry of the source.
# How the values were obtained:
# [1] = target: T1, tau oligomers containing tau without c-terminal truncation (Homo sapiens, UniProt P10636); experiment: ELISA with mAb T46 capture and pAb A11 reporter for curcumin effect on tau-oligomer levels in CSF; type: biochemical; details: same CSF sample from a patient having severe AD; sample preparation as in Example 11
# T1 construct: only tau oligomers containing tau without c-terminal truncation would be detected; from tissue; host or cells: cerebrospinal fluid of a severe AD patient (post mortem, New York Brain Bank)
# T1 sequence (P10636 1-441 isoform P10636-8): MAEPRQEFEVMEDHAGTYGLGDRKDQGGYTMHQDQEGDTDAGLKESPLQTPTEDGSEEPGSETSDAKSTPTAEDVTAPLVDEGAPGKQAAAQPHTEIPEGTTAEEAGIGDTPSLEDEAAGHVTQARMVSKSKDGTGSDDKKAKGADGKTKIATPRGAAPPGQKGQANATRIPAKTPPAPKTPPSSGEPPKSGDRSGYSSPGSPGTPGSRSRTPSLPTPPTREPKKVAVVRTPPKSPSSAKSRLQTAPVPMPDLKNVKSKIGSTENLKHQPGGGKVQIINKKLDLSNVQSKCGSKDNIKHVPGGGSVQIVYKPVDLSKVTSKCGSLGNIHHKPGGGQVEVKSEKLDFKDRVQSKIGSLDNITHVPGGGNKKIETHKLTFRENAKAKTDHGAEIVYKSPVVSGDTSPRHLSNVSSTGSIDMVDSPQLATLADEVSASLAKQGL
# Procedure: Tau oligomer levels based on oligomer conformation was determined using a standard sandwich ELISA where mAb HT7 against tau was used for capture, as mentioned in FIG. 2 (Example 1). After incubation with CSF samples (see FIG. 2 legend) the plates were washed and 100 uL rabbit pAb A11, specific for protein oligomer conformation, was diluted 1000-fold and added to each well. The plate was incubated for one hour at 37° C. and washed. Biotinylated goat anti-rabbit antibody was diluted 10,000-fold in PBST and 50 μL was added to each well. Plates were incubated for 30 min. at 37° C. Detection was done using HRP-neutravidin and QuantaBlu fluorogenic substrate as described for FIG. 2 (Example 1). The results are shown in FIG. 8 (4 severe AD, 5 AD and 3 non-AD CSF samples were tested). Here the assay is specific for tau in association with oligomer conformation and can detect soluble tau oligomers. The combination of a monoclonal antibody against tau with an antibody specific for oligomer conformation is novel. […]
# Tau oligomer levels in CSF were determined using antibodies specific for oligomer conformation and tau with intact c-terminus. […]
# (§1) Data analysis for Example 11 (FIG. 13) and Example 12 (FIG. 14) was measured as a percent decrease in tau-oligomers, upon incubation with curcumin. […]
# (§2) FU=(Average fluorescence of triplicate wells for each sample-average fluorescence of the antibody blank wells). […]
# soluble tau oligomer = experiment: Modified ELISA (mAb HT7 capture, biotinylated mAb HT7 reporter) for curcumin effect on tau-oligomer levels in CSF; type: biochemical, human
# Procedure: FIG. 6 is a schematic diagram illustrating an exemplary method and assay that utilizes standard and modified ELISA to detect tau-monomer, tau pT217, soluble tau oligomer, and tau-amyloid-beta 1-42 complex. Formation of tau oligomers was analyzed using two different ELISA methods to provide verified data. The “modified” ELISA uses the same monoclonal antibody for capture and detection. Insoluble aggregates are removed in the ELISA procedure during washing steps. Only soluble aggregates of tau, not monomers, are detected with this ELISA because the detection and reporter antibody recognizes an epitope which is present only once within tau. […]
# Modified ELISA to determine tau-oligomer levels in CSF: Tau oligomer level was determined using modified sandwich ELISA where mAb HT7 against tau was used for capture and biotinylated mAb HT7 as the reporter. […]
# Sample preparation: A 5 mM stock solution of curcumin was prepared in 100% ethanol. […] The incubated samples were diluted to 500 μL in buffer and analyzed for tau-oligomers by modified ELISA as described in FIG. 6. […]
# as §1, §2
structure (smiles),measurement,setting,value
COc1cc(/C=C/C(=O)CC(=O)/C=C/c2ccc(O)c(OC)c2)ccc1O [curcumin],"percent decrease in tau-oligomers upon incubation with curcumin (FIG. 14, mAb T46 / pAb A11 format)",[1],reduction of tau oligomer levels
same,percent decrease in tau-oligomers upon incubation with curcumin (FIG. 13),"soluble tau oligomer; CSF from three different severe AD patients, 5 uL of 20 uM curcumin in total volume of 100 uL, one hour at 37° C.",disruption of soluble tau oligomer; also recorded: reduction of tau oligomer levels
same,"percent decrease in tau-oligomers upon incubation with curcumin (FIG. 14, modified ELISA format)","soluble tau oligomer; one CSF sample from a patient having severe AD, sample preparation as in Example 11",reduction of tau oligomer levels

# Reference: patent publication US20080220449A1, “Biomarkers and assays for Alzheimer's disease” (OLIGOMERIX, INC., priority 2007, published 2008)
